Assay [1] deals with T1, human liver Glucokinase (GK) (Homo sapiens, UniProt P35557).
T1 construct: His6; made in house; host or cells: Escherichia coli
T1 sequence (P35557 1-466 isoform P35557-2): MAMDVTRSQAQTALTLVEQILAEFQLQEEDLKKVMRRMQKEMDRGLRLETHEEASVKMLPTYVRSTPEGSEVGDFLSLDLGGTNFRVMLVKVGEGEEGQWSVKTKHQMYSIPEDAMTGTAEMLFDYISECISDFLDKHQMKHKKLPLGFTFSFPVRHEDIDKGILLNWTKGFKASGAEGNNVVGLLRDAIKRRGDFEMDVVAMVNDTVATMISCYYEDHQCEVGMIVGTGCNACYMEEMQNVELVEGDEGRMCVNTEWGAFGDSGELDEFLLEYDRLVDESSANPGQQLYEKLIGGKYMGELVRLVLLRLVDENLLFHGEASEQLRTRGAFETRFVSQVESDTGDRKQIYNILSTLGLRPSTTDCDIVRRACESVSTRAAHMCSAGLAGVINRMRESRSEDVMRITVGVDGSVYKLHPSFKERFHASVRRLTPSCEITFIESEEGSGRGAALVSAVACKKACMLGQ
In words: Glucokinase enzyme assay, liver GK. The assay is classed as biochemical. Conditions: for pEC50: concentration that produces 50% activation above vehicle control; for activation at 50 µM: increase in GK activity above vehicle control, compound 50 μM, 12 mM glucose; for EC100%: concentration that produces 100% activation above vehicle control. The source says:
(§1) An enzymatic Glucokinase (GK) assay using purified recombinant human liver/pancreas enzyme was used to evaluate the effects of potential small molecule modulators.
(§2) In this assay, GK catalyzes glucose phosphorylation in the presence of ATP. The product of this reaction, glucose-6-phosphate, was then oxidized by an excess of glucose-6-phosphate dehydrogenase to produce gluconate-6-phosphate with concomitant reduction of nicotinamide adenine dinucleotide (NAD). […] Human GK (Liver/Pancreas) was expressed in Escherichia coli as a (His) 6-tagged fusion protein and was purified by metal chelate affinity chromatography. The assay was performed in a final incubation volume of 80 μl in a 96-well clear low UV absorption plates. The incubation mixture consisted of 25 mM HEPES, 2 mM MgSO4, 1 mM dithiothreotol (DTT), 1 mg/mL bovine serum albumin (BSA), 1 mM ATP, 1 mM NAD, and 12 mM glucose, 10 units per mL glucose-6-phosphate dehydrogenase, and +/−300 ng per mL GK. For determination of the affinity (Km) and Vmax, different concentrations of glucose ranging from 0.5 mM to 40 mM were used in the assay; see Grimsby, J., Sarabu, R.; Grippo, J. F.; et. al. Science 2003, 301, 370-373. Production of reduced NAD (Nicotinamide Adenine Dinucleotide) was measured as changes in absorption at 340 nm in 96-well plate reader (Envision model #2101 Multilabel Plate reader). % Activation @ 50 μM was calculated as the percentage increase in GK activity above the vehicle control with the effective concentration of the compound being 50 μM. EC50% (μM) was calculated as the effective concentration of the compound that produces 50% activation above the vehicle control, and EC100% (μM) was calculated as the effective concentration of the compound that produces 100% activation above the vehicle control.

For assay [2], the target named is T2, human pancreas Glucokinase (GK) (Homo sapiens, UniProt P35557).
T2 construct: His6; made in house; host or cells: Escherichia coli
T2 sequence (P35557 1-465): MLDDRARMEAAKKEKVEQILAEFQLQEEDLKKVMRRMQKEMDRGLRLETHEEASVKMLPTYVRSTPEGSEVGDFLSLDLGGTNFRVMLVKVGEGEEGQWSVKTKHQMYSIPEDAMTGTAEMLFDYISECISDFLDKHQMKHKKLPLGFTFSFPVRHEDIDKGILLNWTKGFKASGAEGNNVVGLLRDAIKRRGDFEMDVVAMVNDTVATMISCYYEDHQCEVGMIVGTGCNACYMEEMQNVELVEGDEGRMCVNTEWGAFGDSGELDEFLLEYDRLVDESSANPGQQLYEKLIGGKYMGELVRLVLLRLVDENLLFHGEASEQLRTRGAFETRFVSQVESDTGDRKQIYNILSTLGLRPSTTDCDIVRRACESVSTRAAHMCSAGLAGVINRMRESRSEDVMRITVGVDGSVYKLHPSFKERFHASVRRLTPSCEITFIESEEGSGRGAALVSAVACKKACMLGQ
In words: Glucokinase enzyme assay, pancreas GK. In kind it is biochemical. Conditions: for pEC50: concentration that produces 50% activation above vehicle control; for EC100%: concentration that produces 100% activation above vehicle control; for activation at 50 µM: increase in GK activity above vehicle control, compound 50 μM, 12 mM glucose.
Excerpt: as §1
as §2, with “Production of reduced NAD (Nicotinamide Adenine Dinucleotide) was measured as changes in absorption at 340 nm in 96-well plate reader (Envision model #2101 Multilabel Plate reader). % Activation @ 50 μM was calculated as the percentage increase in GK activity above the vehicle control with the effective concentration of the compound being 50 μM.” left out

pEC50: −log10 of the molar value.

Turning to `O=C(CCC1c2ccccc2C(=O)N1Cc1ccccc1)Nc1nccs1` (stereo not shown) [Compound 1, 3-(2-Benzyl-3-oxo-2,3-dihydro-1H-isoindol-1-yl)-N-thiazol-2-yl-propionamide], in assay [1], the pEC50 is 4.82 and the activation at 50 µM is 46%.

Turning to `COC(=O)c1ccc(NC(=O)CCC2c3ccccc3C(=O)N2Cc2ccccc2)nc1` (stereo not shown) [Compound 2, 6-[3-(2-Benzyl-3-oxo-2,3-dihydro-1H-isoindol-1-yl)-propionylamino]-nicotinic acid methyl ester], in assay [1], the pEC50 was 5.89 and the “EC100%” value came out at 8.39 µM.

`O=C(CCC1c2ccccc2C(=O)N1Cc1ccccc1)Nc1ccccn1` (stereo not shown) [Compound 3, 3-(2-Benzyl-3-oxo-2,3-dihydro-1H-isoindol-1-yl)-N-pyridin-2-yl-propionamide]: in assay [1], the pEC50 was 5.60 and the “EC100%” value was determined as 8.78 µM.

With `O=C(NCCC1c2ccccc2C(=O)N1Cc1ccccc1)Nc1nccs1` (stereo not shown) [Compound 4, 1-[2-(2-Benzyl-3-oxo-2,3-dihydro-1H-isoindol-1-yl)-ethyl]-3-thiazol-2-yl-urea], the activation at 50 µM in assay [1] stood at 15%.

As to `O=C(CCC1c2ccccc2C(=O)N1Cc1ccccc1)Nc1ccc(C(=O)O)cn1` (stereo not shown) [Compound 5, 6-[3-(2-Benzyl-3-oxo-2,3-dihydro-1H-isoindol-1-yl)-propionylamino]-nicotinic acid], in assay [1], the pEC50 was 5.72, the “EC100%” value amounted to 8 µM and the activation at 50 µM was determined as 138%. Further, in assay [2], the pEC50 is 5.54, the “EC100%” value was 18 µM and the activation at 50 µM stood at 306%.

On to `N#Cc1ccc(NC(=O)CCC2c3c(F)cccc3C(=O)N2Cc2ccc(F)cc2)nc1` (stereo not shown) [Compound 47, N-(5-Cyano-pyridin-2-yl)-3-[7-fluoro-2-(4-fluoro-benzyl)-3-oxo-2,3-dihydro-1H-isoindol-1-yl]-propionamide], for which, in assay [2], the pEC50 was 6.38, the “EC100%” value came out at 15 µM and the activation at 50 µM came out at 114%.

In assay [2], `CS(=O)(=O)c1ccc(NC(=O)CCC2c3c(F)cccc3C(=O)N2Cc2ccc(F)cc2)nc1` (stereo not shown) [Compound 48, 3-[7-Fluoro-2-(4-fluoro-benzyl)-3-oxo-2,3-dihydro-1H-isoindol-1-yl]-N-(5-methanesulfonyl-pyridin-2-yl)-propionamide] showed a pEC50 of 4.77 and an activation at 50 µM of 62.8%.

For `CN(C)c1ccc(CN2C(=O)c3cccc(F)c3C2CCC(=O)Nc2ccc(C(=O)O)cn2)cc1` (stereo not shown) [Compound 49, 6-{3-[2-(4-Dimethylamino-benzyl)-7-fluoro-3-oxo-2,3-dihydro-1H-isoindol-1-yl]-propionylamino}-nicotinic acid], in assay [2], the pEC50 is 7.22, the “EC100%” value is 0.34 µM and the activation at 50 µM came to 212%.

Turning to `COC(=O)c1ccc(NC(=O)CC[C@@H]2c3c(F)cccc3C(=O)N2Cc2ccc(F)cc2)nc1` [Compound 50, (R)-6-{3-[7-Fluoro-2-(4-fluoro-benzyl)-3-oxo-2,3-dihydro-1H-isoindol-1-yl]-propionylamino}-nicotinic acid methyl ester], in assay [2], the activation at 50 µM was 38.6%.

For `COC(=O)c1ccc(NC(=O)CC[C@H]2c3c(F)cccc3C(=O)N2Cc2ccc(F)cc2)nc1` [Compound 51, (S)-6-{3-[7-Fluoro-2-(4-fluoro-benzyl)-3-oxo-2,3-dihydro-1H-isoindol-1-yl]-propionylamino}-nicotinic acid methyl ester], in assay [2], the pEC50 was 8.05, the “EC100%” value is 0.082 µM and the activation at 50 µM stood at 223%.

These data come from patent US8796313B2, “Substituted dihydroisoindolones as allosteric modulators of glucokinase” (Janssen Pharmaceutica N.V., priority 2005, dated 2014).
